Measured values from US20260042764A1, “COMPOSITIONS AND METHODS FOR INHIBITION OF KRAS” (TheRas, Inc., priority 2022, published 2026).

Key:
[1] = test system: AsPC-1 cells (KRAS G12D); assay: Cell-based pERK HTRF assay in AsPC-1 cells (Biological Example 5); conditions: Homo sapiens, ASPC1, AsPC-1 (KRAS G12D) cells
Experimental: (§1) Biological Example 5: Cell-based PERK HTRF assay in AsPC-1, SW1900, HPAC, Capan-2, RKN, H358, HCT116, KP-2, H1573, A549, MKN1, and HT1080 cells
(§2) The inhibition of ERK phosphorylation, as measured using the HTRF Advanced Phospho-ERK 1/2 (Thr202/Tyr204) Detection Assay kit (Perkin Elmer), was used to determine the effectiveness of test compounds in disrupting KRAS-driven protein/effector signaling in cells.
(§3) On day 1, cells were seeded into 96-well plates at 2.5×10^4 cells/well in 100 μL of complete growth media supplemented with 10% fetal bovine serum (FBS) and incubated at 37° C., in the presence of 5% CO2.
(§4) On day 2, cells were treated with compounds diluted in DMSO at 0.25% final DMSO concentration. Compounds were dosed in a 9-point concentration curve with three-fold dilution between concentrations. Cells were incubated in the presence of compound for two hours at 37° C. Following this treatment period, cells were harvested by aspirating the media, adding 40 μL of kit-supplied 1x lysis buffer per well, and shaking for 30 minutes at 250 rpm at room temperature.
(§5) Following cell lysis, samples were homogenized by pipetting up and down twenty times and 16 μL of cell lysate per well was transferred from the 96-well cell culture plate to two wells of a 384-well detection plate. A complete detection buffer was prepared by diluting D2 and Eu Cryptate antibodies 1:20 in kit-provided detection solution, 4 μL of complete detection buffer was then added to each well with lysate. Plates were incubated with gentle rocking for 24 hours at 4° C.
(§6) Following this incubation period, plates were centrifuged at 500×g for one minute and analyzed on a CLARIOstar plate reader. Data was imported into Microsoft Excel and the signal from the 665 nm channel was divided by the signal from the 620 nm channel. % pERK was calculated as: […]
(§7) Data was imported to the Prism software package (Graphpad) and EC50 values were calculated using the log (inhibitor) vs, response—variable slopc (Four parameters) model.

[2] = test system: HCT116 cells (KRAS G13D); assay: Cell-based pERK HTRF assay in HCT116 cells (Biological Example 5); conditions: Homo sapiens, HCT-116
Experimental: as §1, §2, §3, §4, §5, §6, §7

[3] = test system: KP-2 cells (KRAS G12R); assay: Cell-based pERK HTRF assay in KP-2 cells (Biological Example 5); conditions: KP-2 (KRAS G12R) cells
Experimental: as §1, §2, §3, §4, §5, §6, §7

[4] = test system: H1573 cells (KRAS G12A); assay: Cell-based pERK HTRF assay in H1573 cells (Biological Example 5); conditions: Homo sapiens, NCI-H1573
Experimental: as §1, §2, §3, §4, §5, §6, §7

[5] = test system: KP-2 cells (KRAS G12R); assay: 3D Cell viability assay in KP-2 cells (Biological Example 6); type: cell-based; conditions: KP-2 (KRAS G12R) spheroids, 72 hours
Experimental: (§8) Biological Example 6: 3D Cell viability assay in AsPC-1, SW1900, HPAC, Capan-2, RKN, H358, HCT116, KP-2, H1573, A549, MKN1, and HT1080 cells
(§9) The inhibition of cellular viability as a result of test compound treatment in a spheroid assay was measured using the CellTiter-Glow 3D Cell Viability Assay (Promega).
(§10) On Day 1, 1000 cells per well were seeded in 150 μL of complete growth media supplemented with 10% fetal bovine serum (FBS) and incubated at 37° C., in the presence of 5% CO2 in 96-well ultra-low attachment microplates (Corning) for 48 hours undisturbed to allow spheroids to form.
(§11) Following spheroid formation, cells were treated with compounds diluted in DMSO at 0.25% final DMSO concentration. Compounds were dosed in a 9-point concentration curve with three-fold dilution between concentrations. Cells were incubated in the presence of compound for 72 hours at 37° C., in the presence of 5% CO2.
(§12) Following this incubation period, the kit-provided CTG reagent was allowed to equilibrate for 30 minutes at room temperature, 150 μL of equilibrated CTG reagent was added to each well, and the plate was sealed before shaking at 250 rpm for 10 minutes at room temperature to lyse the cells, 150 μL of lysate per well was transferred to a 96-well plate and luminescence was read on a CLARIOstar plate reader.
(§13) Data was imported into the Prism software package (Graphpad) and EC50 values were calculated using the log (inhibitor) vs, response—variable slope (Four parameters) model.

[6] = test system: H1573 cells (KRAS G12A); assay: 3D Cell viability assay in H1573 cells (Biological Example 6); type: cell-based; conditions: Homo sapiens, NCI-H1573; H1573 (KRAS G12A) spheroids, 72 hours
Experimental: as §8, §9, §10, §11, §12, §13

[7] = test system: A549 cells (KRAS G12S); assay: 3D Cell viability assay in A549 cells (Biological Example 6); type: cell-based; conditions: Homo sapiens; A549 (KRAS G12S) spheroids, 72 hours
Experimental: as §8, §9, §10, §11, §12, §13

[8] = test system: HT1080 cells (NRAS); assay: 3D Cell viability assay in HT1080 cells (Biological Example 6); type: cell-based; conditions: Homo sapiens, HT-1080; HT1080 (NRAS) spheroids, 72 hours
Experimental: as §8, §9, §10, §11, §12, §13

C[C@@H]1[C@H](N(C)c2nc(OC[C@@]34CCCN3C[C@H](F)C4)nc3c(F)c(-c4ccc(F)c5sc(N)c(C#N)c45)c(C(F)(F)F)cc23)CC(=O)N1C [Compound 440]
IC50 [1]: > 1000 nM
IC50 [2]: ≤ 100 nM
IC50 [3]: 100 to 1000 nM
IC50 [4]: 100 to 1000 nM
IC50 [5]: ≤ 100 nM
IC50 [6]: > 1000 nM
IC50 [7]: 100 to 1000 nM
IC50 [8]: > 1000 nM
